Source: the supplement of paper PMC13380429

Legend:
[1] = test system: A549-ACE2 infected with SARS-CoV-2; experiment: cell count relative to DMSO; higher = less toxic; conditions: 24 h
Caco-2 [2] = experiment: cell viability relative to DMSO; higher = less toxic; conditions: 72 h
Calu-3 [3] = experiment: as above; conditions: 72 h
HepG2 [4] = experiment: as above; conditions: 72 h
U2OS [5] = experiment: as above; conditions: 72 h
Vero E6 [6] = experiment: as above; conditions: 72 h
[7] = test system: A549-ACE2 infected with SARS-CoV-2; experiment: SARS-CoV-2 infection rate relative to DMSO; higher = more infection; conditions: 24 h
A549-ACE2 [8] = experiment: drug-induced phospholipidosis relative to tamoxifen; higher = more phospholipidosis
[9] = test system: A549-ACE2 infected with SARS-CoV-2; experiment: morphology score (similarity to uninfected cells); higher = more like uninfected cells; conditions: 24 h
Caco-2 [10] = experiment: relative viability EC50 (midpoint between 100% and the lowest measured viability); higher = less toxic; conditions: 72 h
Calu-3 [11] = experiment: as above; conditions: 72 h
HepG2 [12] = experiment: as above; conditions: 72 h
U2OS [13] = experiment: as above; conditions: 72 h
Vero E6 [14] = experiment: as above; conditions: 72 h
Caco-2 [15] = experiment: drug sensitivity score (DSS) for viability; higher = more toxic; extreme values may be limits of the assay; conditions: 72 h
Calu-3 [16] = experiment: as above; conditions: 72 h
HepG2 [17] = experiment: as above; conditions: 72 h
U2OS [18] = experiment: as above; conditions: 72 h
Vero E6 [19] = experiment: as above; conditions: 72 h
A549-ACE2 [20] = experiment: phospholipidosis EC50; higher = less potent phospholipidosis inducer

In the case of `[O-][n+]1ccccc1[S-].[O-][n+]1ccccc1[S-].[Zn+2]` [pyrithione-zinc], the cell count ([1]; 0.3 µM) is reported as 99%, the cell count ([1]; 3 µM) is reported as 4% and the cell viability (Caco-2 [2]; 1 nM) is reported as 91.4%. It also gave a cell viability (Caco-2 [2]; 10 nM) of 94.5%, a cell viability (Caco-2 [2]; 100 nM) of 69.8% and a cell viability (Caco-2 [2]; 1000 nM) of 13.4%. The cell viability (Caco-2 [2]; 10000 nM) was 22.9%, the cell viability (Calu-3 [3]; 1 nM) was 102% and the cell viability (Calu-3 [3]; 10 nM) was 94.8%. The cell viability (Calu-3 [3]; 100 nM) was 94.6%, the cell viability (Calu-3 [3]; 1000 nM) was 40.6% and the cell viability (Calu-3 [3]; 10000 nM) was 18.8%. It also gave a cell viability (HepG2 [4]; 1 nM) of 97%, a cell viability (HepG2 [4]; 10 nM) of 111% and a cell viability (HepG2 [4]; 100 nM) of 102%. For the same molecule, the cell viability (HepG2 [4]; 1000 nM) was 24.6%, the cell viability (HepG2 [4]; 10000 nM) was -0.1% and the cell viability (U2OS [5]; 1 nM) was 102%. For the same molecule, the cell viability (U2OS [5]; 10 nM) was 95.1%, the cell viability (U2OS [5]; 100 nM) was 97% and the cell viability (U2OS [5]; 1000 nM) was 10.8%. It also gave a cell viability (U2OS [5]; 10000 nM) of 1.3%, a cell viability (Vero E6 [6]; 1 nM) of 98.8% and a cell viability (Vero E6 [6]; 10 nM) of 93.6%. The cell viability (Vero E6 [6]; 100 nM) was 94.4%, the cell viability (Vero E6 [6]; 1000 nM) was 40% and the cell viability (Vero E6 [6]; 10000 nM) was 0.1%. It also gave an SARS-CoV-2 infection rate ([7]; 0.3 µM) of 95%, an SARS-CoV-2 infection rate ([7]; 3 µM) of 76% and a drug-induced phospholipidosis (A549-ACE2 [8]; 0.3 µM, 24 h) of -3.98%. It also gave a drug-induced phospholipidosis (A549-ACE2 [8]; 0.3 µM, 48 h) of -0.06%, a drug-induced phospholipidosis (A549-ACE2 [8]; 0.3 µM, 72 h) of 2.15% and a drug-induced phospholipidosis (A549-ACE2 [8]; 0.833333 µM, 24 h) of 2.2%. The morphology score ([9]; 0.3 µM) was 0.13, the morphology score ([9]; 3 µM) was 0.14 and the “relative viability EC50” value (Caco-2 [10]) was 0.137 µM. The “relative viability EC50” value (Calu-3 [11]) was 0.527 µM, the “relative viability EC50” value (HepG2 [12]) was 0.64 µM and the “relative viability EC50” value (U2OS [13]) was 0.406 µM. The “relative viability EC50” value (Vero E6 [14]) was 0.748 µM, the drug sensitivity score (Caco-2 [15]) was 19.5 and the drug sensitivity score (Calu-3 [16]) was 12. The drug sensitivity score (HepG2 [17]) was 14.1, the drug sensitivity score (U2OS [18]) was 16.4 and the drug sensitivity score (Vero E6 [19]) was 12.8.

`Cc1cccc(Nc2nc(-c3ccncc3)cs2)c1` was tested, and the cell count ([1]; 0.1 µM) was 108%, the cell count ([1]; 0.3 µM) was 107% and the cell count ([1]; 1 µM) was 110%. The cell count ([1]; 3 µM) was 106%, the cell viability (Caco-2 [2]; 1 nM) was 102% and the cell viability (Caco-2 [2]; 10 nM) was 111%. For the same molecule, the cell viability (Caco-2 [2]; 100 nM) was 97.4%, the cell viability (Caco-2 [2]; 1000 nM) was 98% and the cell viability (Caco-2 [2]; 10000 nM) was 85.8%. For the same molecule, the cell viability (HepG2 [4]; 1 nM) was 104%, the cell viability (HepG2 [4]; 10 nM) was 108% and the cell viability (HepG2 [4]; 100 nM) was 97.2%. The cell viability (HepG2 [4]; 1000 nM) was 94.1%, the cell viability (HepG2 [4]; 10000 nM) was 48.5% and the cell viability (U2OS [5]; 1 nM) was 99.2%. The cell viability (U2OS [5]; 10 nM) was 98.5%, the cell viability (U2OS [5]; 100 nM) was 95.8% and the cell viability (U2OS [5]; 1000 nM) was 98.5%. The cell viability (U2OS [5]; 10000 nM) was 93.6%, the cell viability (Vero E6 [6]; 1 nM) was 95.5% and the cell viability (Vero E6 [6]; 10 nM) was 111%. For the same molecule, the cell viability (Vero E6 [6]; 100 nM) was 99%, the cell viability (Vero E6 [6]; 1000 nM) was 94.9% and the cell viability (Vero E6 [6]; 10000 nM) was 70.6%. It also gave an SARS-CoV-2 infection rate ([7]; 0.1 µM) of 92%, an SARS-CoV-2 infection rate ([7]; 0.3 µM) of 91% and an SARS-CoV-2 infection rate ([7]; 1 µM) of 83%. The SARS-CoV-2 infection rate ([7]; 3 µM) was 50%, the “phospholipidosis EC50” value (A549-ACE2 [20]; 24 h) was 2.94 µM and the “phospholipidosis EC50” value (A549-ACE2 [20]; 48 h) was 2.72 µM. For the same molecule, the “phospholipidosis EC50” value (A549-ACE2 [20]; 72 h) was 3.3 µM, the drug-induced phospholipidosis (A549-ACE2 [8]; 0.3 µM, 24 h) was 2.6% and the drug-induced phospholipidosis (A549-ACE2 [8]; 0.3 µM, 48 h) was 5.9%. It also gave a drug-induced phospholipidosis (A549-ACE2 [8]; 0.3 µM, 72 h) of 6.14%, a drug-induced phospholipidosis (A549-ACE2 [8]; 0.833333 µM, 24 h) of 8.64% and a drug-induced phospholipidosis (A549-ACE2 [8]; 0.833333 µM, 48 h) of 9.76%. For the same molecule, the drug-induced phospholipidosis (A549-ACE2 [8]; 0.833333 µM, 72 h) was 9.12%, the drug-induced phospholipidosis (A549-ACE2 [8]; 3.33333 µM, 24 h) was 73.8% and the drug-induced phospholipidosis (A549-ACE2 [8]; 3.33333 µM, 48 h) was 87.3%. It also gave a drug-induced phospholipidosis (A549-ACE2 [8]; 3.33333 µM, 72 h) of 70%, a drug-induced phospholipidosis (A549-ACE2 [8]; 6.66667 µM, 24 h) of 102% and a drug-induced phospholipidosis (A549-ACE2 [8]; 6.66667 µM, 48 h) of 116%. For the same molecule, the drug-induced phospholipidosis (A549-ACE2 [8]; 6.66667 µM, 72 h) was 125%, the drug-induced phospholipidosis (A549-ACE2 [8]; 10 µM, 24 h) was 110% and the drug-induced phospholipidosis (A549-ACE2 [8]; 10 µM, 48 h) was 123%. For the same molecule, the drug-induced phospholipidosis (A549-ACE2 [8]; 10 µM, 72 h) was 120%, the drug-induced phospholipidosis (A549-ACE2 [8]; 30 µM, 24 h) was 57.3% and the drug-induced phospholipidosis (A549-ACE2 [8]; 30 µM, 48 h) was 69.6%. The morphology score ([9]; 0.1 µM) was 0.25, the morphology score ([9]; 0.3 µM) was 0.02 and the morphology score ([9]; 1 µM) was 0.28. For the same molecule, the morphology score ([9]; 3 µM) was 0.31, the “relative viability EC50” value (Caco-2 [10]) was > 10 µM and the “relative viability EC50” value (HepG2 [12]) was 2.22 µM. The “relative viability EC50” value (U2OS [13]) was > 10 µM, the drug sensitivity score (Caco-2 [15]) was 0.3 and the drug sensitivity score (HepG2 [17]) was 3.7. For the same molecule, the drug sensitivity score (U2OS [18]) was 0 and the drug sensitivity score (Vero E6 [19]) was 2.1.
